# Like-named read-outs stand apart in the source and are kept apart here.
# Assays:
# [1] = test system: Zymoseptoria tritici K6105; assay: Efficacy of mixtures of streptimidone and CtmC, liquid culture in PDB, optical density 620 nm; assay type: cell-based
# [2] = test system: Zymoseptoria tritici K6420; assay: as above; assay type: cell-based; conditions: K6420, read-out: % Efficacy
# [3] = test system: Gibberella zeae (Fusarium graminearum); assay: microbe, parasite or virus in culture; assay type: cell-based; conditions: read-out: % Efficacy
# Microdochium nivale = assay: Efficacy of mixtures of streptimidone and CtmC, liquid culture in PDB, optical density 620 nm; assay type: cell-based; conditions: read-out: % Efficacy
# Botrytis cinerea = assay: Efficacy of purified CtmC in-vitro, microtiter plate growth inhibition; assay type: cell-based; conditions: rate 10 ppm; 72 hrs at 24° C.
# Protocol: (§1) CtmC was dissolved in DMSO (Dimethylsulfoxid) to a final concentration of 1000 ppm to create a stock solution. A second dilutions of 1:10 was made in water+0.025% Tween 20. From this second dilution 10 μl are dispensed into a 96-well plate. To each well, 90 μl of medium with fungal spores are added and mixed, resulting in final CtmC concentrations of 10 ppm. All wells containing CtmC also contain DMSO (1%) and Tween 20 (0.0025%).
# Botrytis cinerea (gray mould): Conidia of the fungus from cryogenic storage were directly mixed into nutrient broth (PDB potato dextrose broth). After placing a solution of the test compounds into a microtiter plate (96-well format) the nutrient broth containing the fungal spores was added.
# Monographella nivalis = assay: as above; assay type: cell-based; conditions: rate 10 ppm; 72 hrs at 24° C.
# Protocol: as §1
# Monographella nivalis (snow mould, foot rot of cereals): Conidia of the fungus from cryogenic storage were directly mixed into nutrient broth (PDB potato dextrose broth). After placing a solution of the test compounds into a microtiter plate (96-well format) the nutrient broth containing the fungal spores was added.
# Zymoseptoria tritici [4] = assay: as above; assay type: cell-based; conditions: rate 10 ppm; 72 hrs at 24° C.
# Protocol: as §1
# Zymoseptoria tritici (Septoria leaf blotch): Conidia of the fungus from cryogenic storage were directly mixed into nutrient broth (PDB potato dextrose broth). After placing a solution of the test compounds into a microtiter plate (96-well format) the nutrient broth containing the fungal spores was added.
# Zymoseptoria tritici [5] = assay: Greenhouse test, wheat, preventative; assay type: in vivo; conditions: 1 day preventative, EC50 formulation
# Protocol: (§2) Purified Cyclothiazomycin C (CtmC) was formulated as an EC50 formulation. The formulation was diluted in water at rates of 100 ppm and 50 ppm of CtmC. Plants were treated with 400 L/ha of the diluted product supplemented with an adjuvant to improve sticking and spreading, resulting in a treatment of 40 g/ha and 20 g/ha of CtmC, respectively.
# Zymoseptoria tritici wheat/preventative (Septoria tritici leaf spot on wheat). 2-week old wheat plants cv. Riband are sprayed in a spray chamber with the formulated test compound diluted in water. The test plants are inoculated by spraying a spore suspension on them one day after application. After an incubation period of 1 day at 22° C./21° C. (day/night) and 95% rh, the inoculated test plants are kept at 22° C./21° C. (day/night) and 70% rh in a greenhouse. Efficacy is assessed directly when an appropriate level of disease appears on untreated check plants (16-19 days after application).
# Puccinia triticina = assay: Greenhouse test, wheat, preventative; assay type: in vivo; conditions: 2 days preventative, EC50 formulation
# Protocol: as §2
# Puccinia triticina (also known as recondata, Brown rust on wheat). 2-week old wheat plants cv. Arina are sprayed in a spray chamber with the formulated test compound diluted in water. […] After an incubation period of 1 day at 20° C. and 95% rh, the inoculated test plants are kept at 20° C./18° C. (day/night) and 60% rh in a greenhouse. The percentage leaf area covered by disease is assessed when an appropriate level of disease appears on untreated check plants (12-14 days after application).
# Mycosphaerella arachidis = assay: Greenhouse test, peanut (groundnut), preventative; assay type: in vivo; conditions: 1 day preventative, EC50 formulation
# Protocol: as §2
# Mycosphaerella arachidis peanut/preventative (Brown leaf spot on groundnut) 3-week old peanut plants cv. Georgia Green are sprayed in a spray chamber with the formulated test compound diluted in water. The test plants are inoculated by spraying them with a spore suspension on their lower leaf surface one day after application. After an incubation period of 4 days under a plastic hood at 23° C. and 100% rh, the inoculated test plants are kept at 23° C./20° C. (day/night) and 70% rh in a greenhouse. The percentage leaf area covered by disease is assessed when an appropriate level of disease appears on untreated check plants (12-14 days after application).
# [6] = test system: Fusarium virguliforme isolate 1; assay: Effect of Tween 20 on efficacy of purified CtmC, EC50; assay type: cell-based
# Text: (§3) This is contrary to our results. In order to eliminate the possibility that the fungicidal effect that we observe was down to the presence of Tween 20 we carried out some experiments like those in Example 3 but with various levels of Tween 20, including none.
# (§4) The experiment at outlined in Example 3 was repeated to evaluate the EC50 values for CtmC control on Fusarium virguliforme in presence of 4 different rates of Tween20: 0% (absence of Tween 20), 0.0025%, 0.0050% […] and 0.0100%. The plate layout was identical to Example 7, except that the plates were multiplied 4 times to accommodate the different Tween 20 concentrations in the assay plate. All other experimental conditions were kept identical. Fusarium isolates were tested at 25′000 sp/ml.
# [7] = test system: Fusarium virguliforme isolate 2; assay: as above; assay type: cell-based
# Text: as §3, §4
# [8] = test system: a variety of fungal strains; conditions: statement of WO2015191789, cited from earlier work
compound,measurement,setting,value
"C=C1NC(=O)CNC(=O)[C@H](CCCCN)NC(=O)[C@@]2(C)NC(=O)/C(=C/C)NC(=O)[C@H]3CSC(=N3)[C@@H](CC(N)=O)CC(=O)c3ccc(nc3[C@@H](C)NC(=O)[C@@H]3CCCN3C1=O)-c1nc(cs1)C1=N[C@H](CS1)C(=O)NC(=C)c1nc(cs1)-c1nc(cs1)C1=N[C@@H](CS1)C(=O)N[C@@H](C(=O)O)CS2 [CtmC, cyclothiazomycin C]",Emax at 0.0556 ppm,"[1]; K6105, read-out: % Efficacy, CtmC 0.0556 ppm alone (Streptimidone 0), lower sub-table",0%
same,Emax at 0.0556 ppm,"[1]; K6105, read-out: % Efficacy, CtmC 0.0556 ppm alone (Streptimidone 0), upper sub-table",19%
same,Emax at 0.1667 ppm,"[1]; K6105, read-out: % Efficacy, CtmC 0.1667 ppm alone (Streptimidone 0), lower sub-table",23%
same,Emax at 0.1667 ppm,"[1]; K6105, read-out: % Efficacy, CtmC 0.1667 ppm alone (Streptimidone 0), upper sub-table",61%
same,Emax at 0.5 ppm,"[1]; K6105, read-out: % Efficacy, CtmC 0.5000 ppm alone (Streptimidone 0), lower sub-table",47%
same,Emax at 0.5 ppm,"[1]; K6105, read-out: % Efficacy, CtmC 0.5000 ppm alone (Streptimidone 0), upper sub-table",78%
same,Emax at 0.0556 ppm,[2],0%
same,Emax at 0.1667 ppm,[2],23%
same,Emax at 0.5 ppm,[2],47%
same,Emax at 20 ppm,[3],37%
same,Emax at 0.0333 ppm,Microdochium nivale,19%
same,Emax at 0.1 ppm,Microdochium nivale,42%
same,control of fungal growth (%),Botrytis cinerea,90%
same,control of fungal growth (%),Monographella nivalis,100%
same,control of fungal growth (%),Zymoseptoria tritici [4],90%
same,efficacy 20 g/ha (%),Zymoseptoria tritici [5]; 20 g/ha,44%
same,efficacy 40 g/ha (%),Zymoseptoria tritici [5]; 40 g/ha,16%
same,efficacy 20 g/ha (%),Puccinia triticina; 20 g/ha,81%
same,efficacy 40 g/ha (%),Puccinia triticina; 40 g/ha,81%
same,efficacy 20 g/ha (%),Mycosphaerella arachidis; 20 g/ha,56%
same,efficacy 40 g/ha (%),Mycosphaerella arachidis; 40 g/ha,65%
same,EC50 (ppm),[6]; Tween 20 0%,1.422 ppm
same,EC50 (ppm),[6]; Tween 20 0.0025%,1.053 ppm
same,EC50 (ppm),[6]; Tween 20 0.0050%,0.8103 ppm
same,EC50 (ppm),[6]; Tween 20 0.0100%,1.436 ppm
same,EC50 (ppm),[7]; Tween 20 0%,1.098 ppm
same,EC50 (ppm),[7]; Tween 20 0.0025%,0.889 ppm
same,EC50 (ppm),[7]; Tween 20 0.0050%,0.7844 ppm
same,EC50 (ppm),[7]; Tween 20 0.0100%,1.035 ppm
same,growth inhibitory action toward a variety of fungal strains,[8]; listed as Cyclothiazomycin C,no fungal inhibitory action
same,growth inhibitory action toward a variety of fungal strains,[8]; listed as cyclothiazomycin C,none was observed

# Source: patent US20240334934A1, “FUNGICIDE MIXTURE” (priority 2021, published 2024)
